Series [1] concerns the target Human immunodeficiency virus type 1 reverse transcriptase (Human immunodeficiency virus 1) (UniProt Q72547).
Description: Inhibition of recombinant wild type HIV-1 His-tagged reverse transcriptase p66/p51 expressed in Escherichia coli assessed as reduction in [3H]dTTP incorporation using poly(rA)/oligo(dT) as template/primer after 20 mins by scintillation counting analysis
For series [2], the system named is Human immunodeficiency virus 1. As to the kind of experiment: Potency index, ratio of EFV EC50 to compound EC50 for HIV-1 harboring reverse transcriptase K103N/Y181C double mutant infected in human MT4 cells. It is filed as functional.
Series [3] deals with Human immunodeficiency virus 1. As to the kind of experiment: Antiviral activity against HIV-1 harboring reverse transcriptase K103N mutant infected in human MT4 cells assessed as inhibition of virus-induced cytopathic effect after 5 days by MTT assay. Type of series: functional, organism-based. The note with it: Human immunodeficiency virus 1, MT4, 120 h. Background: Cytopathic effects are the visible damage that an infection or toxin causes in cultured cells.

Series [4] deals with Human immunodeficiency virus 1. As to the kind of experiment: Resistance index, ratio of ID50 for recombinant HIV-1 His-tagged reverse transcriptase p66/p51 Y181I mutant to ID50 for recombinant wild type HIV-1 reverse transcriptase His-tagged p66/p51.
In series [5] the test system is Human immunodeficiency virus 1. As to the kind of experiment: Antiviral activity against HIV-1 IRLL98 harboring reverse transcriptase M41L, D67N, Y181C, M184V, R211K, and T215Y mutants infected in human MT4 cells assessed as inhibition of virus-induced cytopathic effect after 5 days by MTT assay. The settings on record: Human immunodeficiency virus 1, IRLL98, MT4, 120 h. It is filed as functional, organism-based.

The nature of series [6]: Therapeutic index, ratio of CC50 for human MT4 cells to EC50 for HIV-1 NL4-3 infected in human MT4 cells. Type of series: toxicity, cell-based. The note with it: read-out: Ratio CC50/EC50.
The test system of series [7] is Human immunodeficiency virus 1. Kind of series: Potency index, ratio of TMC120 EC50 to compound EC50 for HIV-1 IRLL98 harboring reverse transcriptase M41L, D67N, Y181C, M184V, R211K, and T215Y mutants infected in human MT4 cells. Type of series: functional.
In series [8] the test system is Human immunodeficiency virus 1. As to the kind of experiment: Resistance index, ratio of EC50 for HIV-1 IRLL98 harboring reverse transcriptase M41L, D67N, Y181C, M184V, R211K, and T215Y mutants to EC50 for wild type HIV-1 NL4-3. Type of series: functional.
Series [9] deals with Human immunodeficiency virus type 1 reverse transcriptase (Human immunodeficiency virus 1), Q72547 [Y181I].
Series [10] relates to Human immunodeficiency virus 1. As to the kind of experiment: Antiviral activity against HIV 1 harboring reverse transcriptase Y181C mutant infected in human MT4 cells assessed as inhibition of virus-induced cytopathic effect after 5 days by MTT assay. The note with it: Human immunodeficiency virus 1, MT4, 120 h. Type of series: functional, organism-based.
In series [11] the test system is Human immunodeficiency virus 1. Kind of series: Resistance index, ratio of EC50 for HIV-1 harboring reverse transcriptase K103N/Y181C double mutant to EC50 for wild type HIV-1 NL4-3. It is filed as functional.
The test system of series [12] is Human immunodeficiency virus type 1 reverse transcriptase (Human immunodeficiency virus 1), Q72547 [K103N].
Description: Inhibition of recombinant HIV-1 His-tagged reverse transcriptase p66/p51 K103N mutant expressed in Escherichia coli assessed as reduction in [3H]dTTP incorporation using poly(rA)/oligo(dT) as template/primer after 20 mins by scintillation counting analysis
The subject of series [13] is Human immunodeficiency virus type 1 reverse transcriptase (Human immunodeficiency virus 1), Q72547 [L100I].
For series [14], the system named is Human immunodeficiency virus 1. Kind of series: Antiviral activity against wild type HIV 1 NL4-3 infected in human MT4 cells assessed as inhibition of virus-induced cytopathic effect after 5 days by MTT assay. Type of series: functional, organism-based. The note with it: Human immunodeficiency virus 1, NL4-3, MT4, 120 h.
Series [15] deals with Human immunodeficiency virus 1. As to the kind of experiment: Resistance index, ratio of EC50 for HIV-1 harboring reverse transcriptase K103N mutant to EC50 for wild type HIV-1 NL4-3. It is filed as functional.
The test system of series [16] is Human immunodeficiency virus 1. As to the kind of experiment: Resistance index, ratio of EC50 for HIV-1 harboring reverse transcriptase Y188L mutant to EC50 for wild type HIV-1 NL4-3. Type of series: functional.
For series [17], the system named is Human immunodeficiency virus 1. Kind of series: Potency index, ratio of EFV EC50 to compound EC50 for HIV-1 IRLL98 harboring reverse transcriptase M41L, D67N, Y181C, M184V, R211K, and T215Y mutants infected in human MT4 cells. It is filed as functional.
Series [18] concerns Human immunodeficiency virus 1. As to the kind of experiment: Resistance index, ratio of EC50 for HIV-1 harboring reverse transcriptase Y181C mutant to EC50 for wild type HIV-1 NL4-3. It is filed as functional.
Series [19] can be described thus: Cytotoxicity against human MT4 cells assessed as reduction in cell viability after 5 days by MTT assay. It is filed as cell-based. (In general: Formazan colour is commonly taken as a measure of viable cells.)
The test system of series [20] is Human immunodeficiency virus 1. Kind of series: Antiviral activity against HIV-1 harboring reverse transcriptase Y188L mutant infected in human MT4 cells assessed as inhibition of virus-induced cytopathic effect after 5 days by MTT assay. Type of series: functional, organism-based. The settings on record: Human immunodeficiency virus 1, MT4, 120 h.
Series [21] deals with Human immunodeficiency virus 1. Kind of series: Resistance index, ratio of ID50 for recombinant HIV-1 His-tagged reverse transcriptase p66/p51 L100I mutant to ID50 for recombinant wild type HIV-1 reverse transcriptase His-tagged p66/p51.
For series [22], the system named is Human immunodeficiency virus 1. Kind of series: Resistance index, ratio of ID50 for recombinant HIV-1 His-tagged reverse transcriptase p66/p51 K103N mutant to ID50 for recombinant wild type HIV-1 reverse transcriptase His-tagged p66/p51.
Series [23] deals with Human immunodeficiency virus 1. Kind of series: Antiviral activity against HIV-1 harboring reverse transcriptase K103N/Y181C double mutant infected in human MT4 cells assessed as inhibition of virus-induced cytopathic effect after 5 days by MTT assay. Type of series: functional, organism-based. The note with it: Human immunodeficiency virus 1, MT4, 120 h.

By EC50 is commonly meant the concentration needed to bring the measured effect to its halfway point. The term CC50 denotes the concentration that lowers cell viability or growth by half.

Structures are written as SMILES. A value given as a limit tells only on which side of the number the result lay.

In the case of `COC(c1nc(NC2CCCC2)[nH]c(=O)c1C)c1c(F)cccc1F` (stereo unspecified), the ID50 came to 0.015 µM in series [1], 0.85 µM in series [9], 0.039 µM in series [12] and 0.35 µM in [13]. The “Ratio EC50” value is recorded as 5 - 15 in [2]; 3 - 10 in series [7]; 2 in [8]; 85 in series [11]; 6 - 7 in series [15]; 822 - 875 in series [16]. Moreover, the “Ratio EC50” value in series [17] is 2000 - 3000; in [18], 83 - 86. In addition, the EC50 in [3] was 0.005 to 0.006 µM; in series [5], 0.002 µM; in series [10], 0.069 to 0.075 µM; in series [14] it was 0.0008 to 0.0009 µM; in series [20], 0.7 to 0.74 µM; in [23], 0.077 µM. The Ratio was found to be 57 in [4], 23 in series [21] and 3 in series [22]. Further, the selectivity ratio in series [6] was in the range of 82900 to 93200. Also, the CC50 at 120 h in series [19] was 74.6 µM.
With `COC(c1nc(SC(C)C)[nH]c(=O)c1C)c1c(F)cccc1Cl` (stereo unspecified), the ID50 in [1] fell in the range of 0.004 to 0.005 µM; in [9], 1.5 to 1.6 µM; in series [12], 0.081 to 0.089 µM; in series [13] it was 0.9 to 0.95 µM. For the same compound, the “Ratio EC50” value in series [2] was 5 - 15; in series [7], 3 - 10; in series [8], 2; in [11], 92; in series [15] it was 16 - 20; in series [16] it was 144 - 173. Besides, the results for the “Ratio EC50” value in series [17] and in [18] were 2000 - 3000 and 83 - 90, respectively. The EC50 in series [3] is 0.006 to 0.008 µM; in [5] it was 0.001 µM; in series [10], 0.025 to 0.045 µM; in series [14], 0.0003 to 0.0005 µM; in series [20], 0.052 to 0.072 µM; in series [23], 0.046 µM. For the same compound, the Ratio in [4] lay in the range of 320 to 375; in series [21], 190 to 225; in series [22], 18 to 20. Besides, the selectivity ratio in series [6] is 140000 to 233000. The 50% cytotoxic concentration (CC50) at 120 h in series [19] is over 70 µM.
Turning to `CCCN(C)c1nc(C(OC)c2c(Cl)cccc2Cl)c(C)c(=O)[nH]1` (stereo unspecified), the ID50 was 0.016 to 0.018 µM in [1], 0.74 to 0.84 µM in [9], 0.038 to 0.042 µM in series [12] and 0.34 to 0.42 µM in series [13]. Further, the “Ratio EC50” value is listed as 5 - 15 in series [2]; 3 - 10 in series [7]; 2 in series [8]; 34 in series [11]; 7 in [15]; 30 - 39 in series [16]. In addition, the “Ratio EC50” value is recorded as 2000 - 3000 in [17] and 11 - 16 in series [18]. For the same compound, the concentration giving a half-maximal response (EC50) in [3] was 0.006 to 0.007 µM; in [5], 0.002 µM; in series [10], 0.011 to 0.014 µM; in [14] it was 0.0009 to 0.001 µM; in series [20], 0.03 to 0.035 µM; in series [23] it was 0.031 µM. The Ratio is 46 to 47 in series [4], 21 to 23 in [21] and 2 in series [22]. Further, in series [6], the selectivity ratio is 70800 to 78700. Further, the CC50 at 120 h in series [19] is 70.8 µM.
In the case of `CCC(C)Sc1nc(C(OC)c2c(F)cccc2Cl)c(C)c(=O)[nH]1` (stereo unspecified), the ID50 in series [1] is 0.0009 µM; in series [9], 0.64 µM; in series [12] it was 0.012 µM; in series [13] it was 0.12 µM. Moreover, the “Ratio EC50” value in series [2] was 5 - 15; in [7], 3 - 10; in series [8] it was 3; in [11], 140; in series [15], 5; in [16] it was 275. The “Ratio EC50” value in [17] is 2000 - 3000; in series [18], 135. Also, the EC50 came out at 0.001 µM in series [3]; 0.0006 µM in [5]; 0.027 µM in [10]; 0.0002 µM in series [14]; 0.055 µM in [20]; 0.028 µM in [23]. Further, the figures for the Ratio in series [4], in series [21] and in series [22] were 711, 133 and 13, respectively. In addition, the selectivity ratio in [6] came out at 264000. In series [19], the CC50 at 120 h is 52.8 µM.
As to `Cc1c(C(C)c2c(F)cccc2F)nc(NC2CCCC2)[nH]c1=O` (stereo unspecified), the ID50 came out at 0.03 µM in series [1], 1.7 µM in series [9], 0.38 µM in series [12] and 0.5 µM in series [13]. Also, the EC50 in series [3] stood at 0.41 µM; in series [5], 0.085 µM; in [10] it was 0.22 µM; in series [14], 0.025 µM; in series [20], 0.95 µM; in [23] it was 0.42 µM. The Ratio in series [4] was found to be 57; in series [21] it was 17. In addition, the selectivity ratio in series [6] turned out to be 3600. Moreover, the “Ratio EC50” value in series [8] is 3; in series [11], 17; in series [15] it was 16; in [16], 38; in series [18], 9. The CC50 at 120 h in series [19] amounted to 90 µM.

(Values after ChEMBL document CHEMBL4371047, “Effect of α-Methoxy Substitution on the Anti-HIV Activity of Dihydropyrimidin-4(3 H)-ones” (J Med Chem, 2019).)
